Consider one compound from article PMC6688628, “N-Substituted Pyrrole Derivative 12m Inhibits HIV-1 Entry by Targeting Gp41 of HIV-1 Envelope Glycoprotein” (Frontiers in Pharmacology, 2019).

Each structure is given as a SMILES string.

Data set [1] concerns the target T1, gp41 6-HB (N36/C34) (Human immunodeficiency virus type 1 group M subtype B, UniProt P04578).
T1 construct: purchased GL Biochem of China; host or cells: chemical solid-phase Fmoc synthesis
The experiment in a line: Sandwich ELISA for gp41 6-HB formation. In kind it is biochemical, HIV-1. The note with it: sandwich ELISA with mAb NC-1; 0.5-µM N36 and C34. How it is done:
The inhibition of gp41 6-HB formation by NSPD-12m was determined by a sandwich ELISA as previously described ([Liu et al., 2007]). In brief, the wells of a 96-well polystyrene plate (Corning) were first precoated with 2 µg/ml IgG purified from rabbit antisera against the N36/C34 complex at 4°C overnight. In addition, the wells were blocked by 2% dry nonfat milk at 37°C for 1 h. NSPD-12m at graded concentrations was incubated with 0.5-µM N36 at 37°C for 30 min, followed by the addition of 0.5-µM C34 at 37°C for another 30-min incubation. Afterward, the previously mentioned mixtures were added to the prepared wells and incubated at 37°C for another 1 h. Then, 1 µg/ml mAb NC-1, biotin-labeled goat anti-mouse IgG (1:10,000 diluted in PBS buffer with 2% dry nonfat milk), SA-HRP (1:20,000 diluted in PBS buffer with 10% goat serum), TMB, and 1-M H2SO4 were added sequentially. A450 was measured by an ELISA reader, and EC50 was calculated using CalcuSyn software ([Chou and Talalay, 1984]). NB-64, a small-molecule HIV entry inhibitor targeting gp41, and ADS-J1 were used as positive controls.

Data set [2] addresses T1, gp41 6-HB (N36/C34). The experiment in a line: CD spectroscopy of N36/C34 alpha-helical conformation. It counts as biochemical, HIV-1. The note with it: 20-µM compound preincubated with N36 before the addition of C34. How it is done: The effects of NSPD-12m on the formation of the secondary α-helix structures of the peptides N36 and C34 were detected by CD spectroscopy as described previously ([Liu et al., 2005]; [Zhang et al., 2018]). Briefly, the peptide N36 (10 µM in PBS) was incubated with NSPD-12m (20 µM in PBS) or PBS at 37°C for 30 min, followed by incubation with the peptide C34 (10 µM in PBS) at 37°C for another 30 min. To further confirm that NSPD-12m inhibited the formation of secondary α-helix structures, the peptide N36 was incubated with the peptide C34 at 37°C for 30 min before the addition of the compound. ADS-J1 (40 µM in PBS) was used as a positive control. The reported CD spectra of the peptides N36 and C34 and the mixture of N36, C34, and the compounds described previously were obtained at 25°C using a Jasco 715 spectropolarimeter (Jasco Inc., Japan) with a 5.0-nm bandwidth, 0.1-nm resolution, 0.1-cm path length, 4.0-s response time, and 50-nm/min scanning speed. The spectra were corrected by the subtraction of a blank corresponding to the solvent. The quantities of compounds with α-helix structures were estimated from the molar ellipticity at 222 nm using Jasco software utilities.

The test system of data set [3] is HIV-1JR-FL Env mutant Q577A pseudovirus. In kind it is cell-based. The note with it: compared with wild-type HIV-1JR-FL pseudovirus.
Data set [4] deals with HIV-1JR-FL Env mutant W571A pseudovirus. It counts as cell-based. The note with it: compared with wild-type HIV-1JR-FL pseudovirus.
Data set [5] concerns HIV-1 NL4-3(36G)V38A,N42D. The note with it: T20-resistant NL4-3(36G)V38A,N42D; p24 ELISA; mean ± SD. On the technique in general: ELISA stands for enzyme-linked immunosorbent assay.
Data set [6] relates to HIV-1JR-FL Env mutant R579A pseudovirus. In kind it is cell-based. The note with it: compared with wild-type HIV-1JR-FL pseudovirus.
The subject of data set [7] is HIV-1 NL4-3(36G)N42T,N43K. The note with it: T20-resistant NL4-3(36G)N42T,N43K; p24 ELISA; mean ± SD.
The subject of data set [8] is HIV-1 NL4-3(36G)V38A,N42T. The note with it: T20-resistant NL4-3(36G)V38A,N42T; p24 ELISA; mean ± SD.
Data set [9] relates to HIV-1 R5 virus. Briefly: Cell-cell HIV-1 R5 transmission, MT-2 to CEMx174 5.25 M7 cells. In kind it is cell-based. The note with it: Human immunodeficiency virus 1; infected MT-2 to CEMx174 5.25 M7 cells; luciferase. How it is done: Inhibition of fusion between MT-2 cells infected by HIV-1 strains (X4 and R5 viruses) with CEMx174 5.25 M7 cells, which express CD4 and both coreceptors, CXCR4 and CCR5, was determined by a luciferase assay. Briefly, MT-2 cells were infected with the corresponding HIV-1 strains for 7 days. The infected MT-2 cells were washed three times and resuspended in culture medium to 2 × 10^5/ml. Then, 50 μl of a compound at graded concentrations in triplicate was incubated with equal volumes of HIV-1-infected MT-2 cells at 37°C for 30 min. Next, 100 μl of CEMx174 5.25 M7 cells (4 × 10^5/ml) was added, and the cells were incubated at 37°C for 3 days. The cells were collected, washed, and lysed with the lysing reagent included in the luciferase kit (Promega, Corp., Madison, Wis). Aliquots of cell lysates were transferred to 96-well flat-bottom luminometer plates (Costar), followed by the addition of luciferase substrate (Promega). Luciferase activity was measured using an Ultra 384 luminometer. ADS-J1 was used as a positive control for all cell–cell fusion assays.

A short description of data set [10]: XTT assay, U87-CD4-CXCR4 cells. In kind it is cell-based. The note with it: human. How it is done: The in vitro cell viability of NSPD-12m on HIV-1 target cells (U87-CD4-CXCR4, U87-CD4-CCR5, TZM-bl, and MT-2 cells) and HIV effector cells (CHO-WT cells) was analyzed by an XTT colorimetric assay. Briefly, 100 µl of 5 × 10^5/ml cells was mixed and incubated with 100 µl of NSPD-12m at graded concentrations at 37°C for 3 days. Then, 50 µl of XTT solution (1 mg/ml) containing 0.02 µM of phenazinemethosulphate (PMS) was added to each well, and the cells were incubated at 37°C for another 4 h. The absorbance at 450 nm was measured with an ELISA reader. The 50% cytotoxicity concentrations (CC50) were calculated using the CalcuSyn software ([Chou and Talalay, 1984]).
Background: Tetrazolium dyes change colour on reduction, which living cells bring about.

T1 sequence (P04578 546-581): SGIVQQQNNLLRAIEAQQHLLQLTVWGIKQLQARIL

As for `Cc1cc(/C=C2\SC(=S)N(Cc3ccccc3C(F)(F)F)C2=O)c(C)n1-c1ccc(O)c(C(=O)O)c1` [NSPD-12m], the EC50 (usually the midpoint of the concentration-response curve) in data set [1] is 23 ± 1.44 µM; in data set [9] it was 1420 ± 300 nM. Moreover, the “α-helical content of the 6-HB (CD, 222 nm)” value in [2] is “clearly reduced”. Further, the “inhibitory activity against Q577A mutant pseudovirus” value in data set [3] is recorded as “retained the inhibitory activity”. The “inhibitory activity against W571A mutant pseudovirus” value in data set [4] is given as “retained the inhibitory activity”. The IC50 (in general, the midpoint of a concentration-inhibition curve) in data set [5] came to 22.4 ± 2.84 µM; in data set [7], 4.23 ± 1.92 µM; in data set [8] it was 16.3 ± 3.03 µM. In addition, the IC90 (commonly the point of the concentration-response curve where the effect stands at 90%) in data set [5] turned out to be 32.5 ± 4.95 µM; in data set [7], 29.7 ± 2.28 µM; in data set [8], 33.9 ± 6.14 µM. Moreover, the “inhibitory activity against R579A mutant pseudovirus” value in [6] is “retained the inhibitory activity”. Moreover, it took 101.4 ± 0.48 µM to reach half-maximal cytotoxicity in data set [10] (CC50 at 3 days). For the same compound, in data set [10], the CC90 at 3 days is 122.5 ± 0.59 µM.
